Test results reported in publication PMC3173978, “Kinetic Characterisation of Phosphofructokinase Purified from Setaria cervi: A Bovine Filarial Parasite” (Enzyme Research, 2011).

Experiments:
[1] = system: T1, S. cervi PFK (phosphofructokinase); assay: coupled assay (aldolase/TPI/GDH, NADH oxidation at […] nm), Lineweaver-Burk; assay type: biochemical, Setaria cervi; conditions: 50 and 100 μM ATP, 3.3 mM Mg2+, pH 8.0
T1 construct: native enzyme purified to electrophoretic homogeneity from adult female worms (from buffalo peritoneal folds); subunit mass 90 kDa

[2] = biological target: T1, S. cervi PFK (phosphofructokinase); assay: as above; assay type: biochemical, Setaria cervi; conditions: competitive vs F-6-P, 0.1 mM ATP, 3.3 mM Mg2+, Tris-HCl pH 8.0

## O=P(O)(O)OC[C@H]1OC(O)(CO)[C@@H](O)[C@@H]1O (stereo partly drawn) [F-6-P, D-fructose-6-phosphate]
[1]
  Km: 1050 µM

## O=P(O)(O)OC[C@H]1OC(O)(COP(=O)(O)O)[C@@H](O)[C@@H]1O (stereo partly drawn) [FDP, D-fructose-1,6-diphosphate]
[2]; aldolase in coupling system acts on FDP
  Ki: 0.18 µM

## C=C(OP(=O)(O)O)C(=O)O [PEP, phosphoenolpyruvate]
[2]
  Ki: 800 µM
